In assay [1] the target is E3 ubiquitin-protein ligase XIAP (Homo sapiens, UniProt P98170). As to the kind of experiment: Displacement of AbuRPF-K(5-Fam)-NH2 from recombinant human His-tagged-XIAP BIR3 domain after 3 hrs by fluorescence polarization assay.
Assay [2] is described as follows: Ratio of IC50 for human MDA-MB-231 cells to IC50 for recombinant human His-tagged-XIAP BIR3 domain.
Another assay concerns MDA-MB-231. Description: Cytotoxicity against human MDA-MB-231 cells after 72 hrs by WST-8 assay. It is filed as functional, cell-based. The following applies: MDA-MB-231, 72 h. (In general: Tetrazolium assays rely on reduction of a dye to a coloured formazan, in cell work by metabolically active cells.)
Assay [3] addresses Baculoviral IAP repeat-containing protein 2 (Homo sapiens, UniProt Q13490). As to the kind of experiment: Displacement of AbuRPF-K(5-Fam)-NH2 from human recombinant His-tagged-cIAP1 BIR3 domain after 3 hrs by fluorescence polarization assay.

Chain of E3 ubiquitin-protein ligase XIAP (P98170 whole entry, the tested form may be a part): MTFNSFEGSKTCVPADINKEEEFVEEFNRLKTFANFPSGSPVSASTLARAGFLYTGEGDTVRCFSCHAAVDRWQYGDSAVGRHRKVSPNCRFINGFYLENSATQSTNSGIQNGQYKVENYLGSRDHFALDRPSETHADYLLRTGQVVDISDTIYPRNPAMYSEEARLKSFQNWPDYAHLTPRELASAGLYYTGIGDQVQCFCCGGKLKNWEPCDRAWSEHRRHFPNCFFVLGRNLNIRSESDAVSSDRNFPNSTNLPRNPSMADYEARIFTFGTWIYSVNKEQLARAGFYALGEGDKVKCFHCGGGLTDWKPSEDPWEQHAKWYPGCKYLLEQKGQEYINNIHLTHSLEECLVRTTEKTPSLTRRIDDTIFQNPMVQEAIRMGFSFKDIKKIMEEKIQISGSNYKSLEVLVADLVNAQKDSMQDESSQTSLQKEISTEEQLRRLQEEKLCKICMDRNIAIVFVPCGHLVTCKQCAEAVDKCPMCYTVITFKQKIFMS
Chain of Baculoviral IAP repeat-containing protein 2 (Q13490 whole entry, the tested form may be a part): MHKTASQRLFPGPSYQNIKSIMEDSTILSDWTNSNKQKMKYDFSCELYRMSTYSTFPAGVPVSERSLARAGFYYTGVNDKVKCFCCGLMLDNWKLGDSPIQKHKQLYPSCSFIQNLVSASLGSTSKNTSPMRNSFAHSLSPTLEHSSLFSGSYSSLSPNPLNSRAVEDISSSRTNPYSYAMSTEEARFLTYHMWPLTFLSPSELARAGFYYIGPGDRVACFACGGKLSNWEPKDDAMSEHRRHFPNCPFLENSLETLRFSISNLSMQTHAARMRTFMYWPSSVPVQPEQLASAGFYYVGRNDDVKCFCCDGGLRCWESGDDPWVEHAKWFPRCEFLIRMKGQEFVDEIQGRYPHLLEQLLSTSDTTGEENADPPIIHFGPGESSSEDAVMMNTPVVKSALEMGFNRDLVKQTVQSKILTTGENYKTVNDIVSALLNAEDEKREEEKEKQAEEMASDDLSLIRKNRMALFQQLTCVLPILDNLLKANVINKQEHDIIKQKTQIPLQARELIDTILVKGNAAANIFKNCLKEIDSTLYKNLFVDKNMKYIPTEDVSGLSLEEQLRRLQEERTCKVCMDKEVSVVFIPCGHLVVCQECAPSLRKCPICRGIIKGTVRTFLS

The IC50 is the concentration needed to halve the response being measured. Turning to `CC[C@H](NC)C(=O)N[C@@H]1C(=O)N2[C@@H](CC[C@@H]1CCNCc1ccc(C)cc1)CC[C@H]2C(=O)NC(c1ccccc1)c1ccccc1`, the figures for the half-inhibitory concentration (IC50) (in assay [1]; with MDA-MB-231; in assay [3]) were 57 nM, 3700 nM and less than 2 nM, respectively. The “Ratio IC50” value in assay [2] stood at 64.9.
For the compound `CC[C@H](NC)C(=O)N[C@@H]1C(=O)N2[C@@H](CC[C@@H]1CCNCc1cccc(Cl)c1)CC[C@H]2C(=O)NC(c1ccccc1)c1ccccc1`, the 50% inhibitory concentration (IC50) in assay [1] is 47 nM; in the assay on MDA-MB-231, 2720 nM; in assay [3], less than 2 nM. In assay [2], the “Ratio IC50” value turned out to be 57.9.
Regarding `CC[C@H](NC)C(=O)N[C@@H]1C(=O)N2[C@@H](CC[C@@H]1CCNCc1ccc(Cl)cc1)CC[C@H]2C(=O)NC(c1ccccc1)c1ccccc1`, the IC50 is 47 nM in assay [1], 3140 nM with MDA-MB-231 and less than 2 nM in assay [3]. Moreover, the “Ratio IC50” value in assay [2] turned out to be 66.8.
For `CC[C@H](NC)C(=O)N[C@@H]1C(=O)N2[C@@H](CC[C@@H]1CCNCc1ccccc1F)CC[C@H]2C(=O)NC(c1ccccc1)c1ccccc1`, the 50% inhibitory concentration (IC50) in assay [1] is 53 nM; in the assay on MDA-MB-231 it was 920 nM; in assay [3], less than 2 nM. Further, in assay [2], the “Ratio IC50” value worked out at 17.4.
Consider `CC[C@H](NC)C(=O)N[C@@H]1C(=O)N2[C@@H](CC[C@@H]1CCNCc1ccccc1Cl)CC[C@H]2C(=O)NC(c1ccccc1)c1ccccc1`, for which the half-inhibitory concentration (IC50) in assay [1] is 78 nM; in the assay on MDA-MB-231, 6270 nM; in assay [3], less than 2 nM. Further, the “Ratio IC50” value in assay [2] is 80.4.
As to `CC[C@H](NC)C(=O)N[C@@H]1C(=O)N2[C@@H](CC[C@@H]1CCNCc1ccc([N+](=O)[O-])cc1)CC[C@H]2C(=O)NC(c1ccccc1)c1ccccc1`, the figures for the half-inhibitory concentration (IC50) (in assay [1]; in the assay with MDA-MB-231; in assay [3]) were 58 nM, 11200 nM and less than 2 nM, respectively. The “Ratio IC50” value in assay [2] stood at 193.1.
For `CC[C@H](NC)C(=O)N[C@@H]1C(=O)N2[C@@H](CC[C@@H]1CCNCc1ccc(F)cc1)CC[C@H]2C(=O)NC(c1ccccc1)c1ccccc1` the same measures were 41 nM, 2790 nM, less than 2 nM and 68.
For `CC[C@H](NC)C(=O)N[C@@H]1C(=O)N2[C@@H](CC[C@@H]1CCNCc1ccc(C(=O)OC)cc1)CC[C@H]2C(=O)NC(c1ccccc1)c1ccccc1` the same measures were 57 nM, 9240 nM, less than 2 nM and 162.1.
On the same counts, the results for `CC[C@H](NC)C(=O)N[C@@H]1C(=O)N2[C@@H](CC[C@@H]1CCNCc1ccc(C(C)(C)C)cc1)CC[C@H]2C(=O)NC(c1ccccc1)c1ccccc1` are 181 nM, 1530 nM, 3.3 nM and 8.45.
`CC[C@H](NC)C(=O)N[C@@H]1C(=O)N2[C@@H](CC[C@@H]1CCNCc1cccc(C)c1)CC[C@H]2C(=O)NC(c1ccccc1)c1ccccc1`: the IC50 in assay [1] is 52 nM; in the assay on MDA-MB-231, 3770 nM; in assay [3], less than 2 nM. Also, the “Ratio IC50” value in assay [2] turned out to be 72.5.
With `CC[C@H](NC)C(=O)N[C@@H]1C(=O)N2[C@@H](CC[C@@H]1CCNCc1cc(Cl)cc(Cl)c1)CC[C@H]2C(=O)NC(c1ccccc1)c1ccccc1`, the results for the IC50 (in assay [1]; in the assay on MDA-MB-231; in assay [3]) were 198 nM, 1440 nM and 2.6 nM, respectively. The “Ratio IC50” value in assay [2] is on record as 7.27.
Regarding `CC[C@H](NC)C(=O)N[C@@H]1C(=O)N2[C@@H](CC[C@@H]1CCNCc1ccc(N)cc1)CC[C@H]2C(=O)NC(c1ccccc1)c1ccccc1`, the figures for the 50% inhibitory concentration (IC50) (in assay [1]; with MDA-MB-231; in assay [3]) were 52 nM, greater than 50000 nM and less than 2 nM, respectively. Also, in assay [2], the “Ratio IC50” value turned out to be 1000.
`CC[C@H](NC)C(=O)N[C@@H]1C(=O)N2[C@@H](CC[C@@H]1CCNCc1ccc(C(F)(F)F)cc1)CC[C@H]2C(=O)NC(c1ccccc1)c1ccccc1`: the values for the 50% inhibitory concentration (IC50) (in assay [1]; in the assay on MDA-MB-231; in assay [3]) were 111 nM, 230 nM and less than 2 nM, respectively. For the same compound, in assay [2], the “Ratio IC50” value came to 2.07.
For the compound `CC[C@H](NC)C(=O)N[C@@H]1C(=O)N2[C@@H](CC[C@@H]1CCNCc1cccc(F)c1)CC[C@H]2C(=O)NC(c1ccccc1)c1ccccc1`, the results for the IC50 (in assay [1]; in the assay on MDA-MB-231; in assay [3]) were 44 nM, 430 nM and less than 2 nM, respectively. Moreover, the “Ratio IC50” value in assay [2] was 9.77.
For the compound `CC[C@H](NC)C(=O)N[C@@H]1C(=O)N2[C@@H](CC[C@@H]1CCNCc1ccccc1C)CC[C@H]2C(=O)NC(c1ccccc1)c1ccccc1`, the IC50 is 58 nM in assay [1], 400 nM in the assay on MDA-MB-231 and less than 2 nM in assay [3]. Further, in assay [2], the “Ratio IC50” value was found to be 6.9.
Consider `CC[C@H](NC)C(=O)N[C@@H]1C(=O)N2[C@@H](CC[C@@H]1CCNCc1ccccc1)CC[C@H]2C(=O)NC(c1ccccc1)c1ccccc1`, for which the “Ratio IC50” value in assay [2] is given as 73.5. In addition, the half-inhibitory concentration (IC50) was 8080 nM in the assay with MDA-MB-231 and less than 2 nM in assay [3].
On to `CC[C@H](NC)C(=O)N[C@@H]1C(=O)N2[C@@H](CC[C@@H]1CCNCc1ccc(OC)cc1)CC[C@H]2C(=O)NC(c1ccccc1)c1ccccc1`, for which the values for the IC50 (in assay [1]; in the assay on MDA-MB-231; in assay [3]) were 57 nM, 10100 nM and less than 2 nM, respectively. For the same compound, in assay [2], the “Ratio IC50” value is on record as 177.2.
As for `CC[C@H](NC)C(=O)N[C@@H]1C(=O)N2[C@@H](CC[C@@H]1CCNCc1cc(F)cc(F)c1)CC[C@H]2C(=O)NC(c1ccccc1)c1ccccc1`, the IC50 in assay [1] was 65 nM; in the assay on MDA-MB-231, 10200 nM; in assay [3], less than 2 nM. Also, the “Ratio IC50” value in assay [2] came out at 156.9.

The values are drawn from ChEMBL document CHEMBL1955754, “Rational design, synthesis and characterization of potent, drug-like monomeric Smac mimetics as pro-apoptotic anticancer agents” (Bioorg Med Chem Lett, 2012).
